Experimental data from patent US20210177847A1, “Compounds for treatment of diseases related to DUX4 expression” (Facio Intellectual Property B.V., priority 2017, published 2021).
Like-named read-outs stand apart in the source and are kept apart here.

Tests used:
DUX4 = experiment: High-content immunocytochemistry assay of endogenous DUX4 expression in differentiating primary FSHD myotubes; type: cell-based, human; details: for EC50: Homo sapiens, Myotube, read-out: half maximal effective concentration (EC50), DUX4 repression
Description: A quantitative assay readout was developed based on script-based image analysis. Cells were stained according to example 1, also using DAPI to detect myonuclei and an antibody against myosin heavy chain (MHC) to visualize the formation of myotubes. To analyse the images, an automated script was developed, enabling the detection of nuclei, myotube borders and DUX4 signals, with the script also detecting artefacts to reduce false positive signals. The script enabled multiple validated readouts including the number of DUX4 positive nuclei and nuclei clusters, the fusion index, myotube area, myotube width and myotube skeleton length (see FIG. 2). Additionally, the total nuclei count was included as a measure of cell loss or compound toxicity. The script was validated by evaluating endogenous DUX4 expression in the primary myotubes, and results were in line with literature values, with the number of DUX4 expressing nuclei being <0.5%.
A compound library containing approximately 5000 annotated compounds was screened in the high-content assay. For this purpose, primary myoblasts were seeded in 384 well plates after which the growth medium was replaced with differentiation medium. After 3 days of differentiation, cells were treated with library compounds (in duplicate on different screening plates) for 15 h, after which they were fixed and stained with antibodies against DUX4, antibodies against myosin heavy chain (MHC), and with DAPI (4′,6-diamidino-2-phenylindole). Script-based analysis provided readouts for DUX4 expression (count of DUX4-positive nuclei or DUX4 intensity) and for potential toxicity (fusion index and nuclei count). The majority of the approximately 200 hits was confirmed in an experiment using the same assay and 5 replicates. These compounds were selected for further concentration-response profiling.
The DUX4 repression of CK1 inhibitors was assayed following the protocol of Example 2, illustrated in FIG. 4A. […] Compounds were incubated with primary FSHD cells for 15 hours, as indicated by the arrow in FIG. 4A.

CK1α = CK1α (Homo sapiens, UniProt P48729); experiment: CK1α inhibition IC50; type: biochemical; details: Table 3; read-out: CK1 a IC50
CK1δ = CK1δ (Homo sapiens, UniProt P48730); experiment: CK1δ inhibition IC50; type: biochemical; details: Table 3; read-out: CK1 d IC50
CK1ε = CK1ε (Homo sapiens, UniProt P49674); experiment: CK1ε inhibition IC50; type: biochemical; details: Table 3; read-out: CK1 e IC50
p38α = p38α (Homo sapiens, UniProt Q16539); experiment: p38α inhibition IC50; type: biochemical; details: Table 3; read-out: p38a IC50
[1] = primary FSHD cells, compounds incubated 15 hours, Table 3

CK1δ, sequence (P48730 whole entry): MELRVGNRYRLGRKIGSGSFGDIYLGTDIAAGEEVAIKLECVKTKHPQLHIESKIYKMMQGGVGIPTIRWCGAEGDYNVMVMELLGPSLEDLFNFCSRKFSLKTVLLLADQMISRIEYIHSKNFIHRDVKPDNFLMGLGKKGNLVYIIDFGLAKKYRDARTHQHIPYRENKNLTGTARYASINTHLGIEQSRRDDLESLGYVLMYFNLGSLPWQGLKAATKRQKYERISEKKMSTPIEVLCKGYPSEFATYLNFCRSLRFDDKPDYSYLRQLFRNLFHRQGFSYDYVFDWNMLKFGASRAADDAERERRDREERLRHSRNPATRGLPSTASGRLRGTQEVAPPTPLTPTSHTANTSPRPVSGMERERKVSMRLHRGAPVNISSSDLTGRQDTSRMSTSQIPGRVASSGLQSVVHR
CK1α, sequence (P48729 whole entry): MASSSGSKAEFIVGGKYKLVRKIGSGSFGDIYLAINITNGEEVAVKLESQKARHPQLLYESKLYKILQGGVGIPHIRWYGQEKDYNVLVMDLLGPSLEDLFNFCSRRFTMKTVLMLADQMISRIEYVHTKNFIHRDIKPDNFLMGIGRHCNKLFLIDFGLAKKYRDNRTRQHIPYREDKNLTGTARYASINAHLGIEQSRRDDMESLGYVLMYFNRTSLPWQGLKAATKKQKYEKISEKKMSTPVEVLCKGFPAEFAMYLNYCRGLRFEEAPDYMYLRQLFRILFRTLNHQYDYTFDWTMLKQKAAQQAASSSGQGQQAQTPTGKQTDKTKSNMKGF
p38α, sequence (Q16539 whole entry): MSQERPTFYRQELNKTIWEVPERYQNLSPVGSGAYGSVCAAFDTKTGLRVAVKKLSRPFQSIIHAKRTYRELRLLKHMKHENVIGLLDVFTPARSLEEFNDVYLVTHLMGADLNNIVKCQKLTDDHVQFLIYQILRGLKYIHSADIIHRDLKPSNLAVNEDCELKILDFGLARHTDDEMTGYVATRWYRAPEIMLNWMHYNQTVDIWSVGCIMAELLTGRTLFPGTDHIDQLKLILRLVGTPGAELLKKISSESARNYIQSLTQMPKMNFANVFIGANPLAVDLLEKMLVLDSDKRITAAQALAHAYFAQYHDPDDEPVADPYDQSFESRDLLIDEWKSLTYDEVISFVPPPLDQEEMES
CK1ε, sequence (P49674 whole entry): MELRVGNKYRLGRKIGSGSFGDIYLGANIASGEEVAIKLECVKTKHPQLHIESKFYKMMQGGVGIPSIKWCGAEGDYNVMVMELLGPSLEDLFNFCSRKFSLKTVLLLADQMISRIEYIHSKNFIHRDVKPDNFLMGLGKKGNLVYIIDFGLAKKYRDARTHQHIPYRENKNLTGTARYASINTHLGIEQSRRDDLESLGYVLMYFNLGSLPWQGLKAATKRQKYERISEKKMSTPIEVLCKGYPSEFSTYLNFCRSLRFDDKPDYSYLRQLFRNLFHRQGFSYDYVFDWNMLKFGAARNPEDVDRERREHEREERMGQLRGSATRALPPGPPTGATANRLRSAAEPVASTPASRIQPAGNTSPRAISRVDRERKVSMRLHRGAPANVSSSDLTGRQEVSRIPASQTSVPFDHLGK

## CC1(C)CN(c2ccc3nc(-c4ccc(F)cc4)c(-c4ccncc4)n3n2)CCN1 [Compound A]
DUX4; [1]
  EC50: 40 to 50 nM

## CN1CCN(c2ccc3nc(-c4ccc(F)cc4)c(-c4ccncc4)n3n2)CC1 [Compound B]
DUX4; [1]
  EC50: 2000 nM

## CNc1nccc(-c2c(-c3ccc(F)cc3)ncn2C2CCN(Cc3ccon3)CC2)n1 [Compound C]
DUX4; [1]
  EC50: 1100 to 1400 nM

## CN1Cc2nccc(-c3cn(C)nc3-c3ccc(F)cc3)c2C1=O [Compound E]
DUX4; 15 h
  EC50: 1900 to 3100 nM

## Cn1cc(-c2ccnc3c2C(=O)N(C2CCOCC2)C3)c(-c2ccc(F)cc2)n1 [Compound F]
DUX4; [1]
  EC50: 1500 to 2600 nM

## COCCN1Cc2nccc(-c3cn(C)nc3-c3ccc(F)cc3)c2C1=O [Compound G]
DUX4; [1]
  EC50: 1700 to 4500 nM
CK1α
  IC50: 2590 nM
CK1δ
  IC50: 41.8 nM
CK1ε
  IC50: 92.1 nM
p38α
  IC50: 712 nM

## Fc1ccc(-c2nc3ccc(N4CCNCC4)nn3c2-c2ccncc2)cc1 [Compound H]
DUX4; [1]
  EC50: 10 to 46 nM
CK1α
  IC50: 22 nM
CK1δ
  IC50: 16.5 nM
CK1ε
  IC50: 9.41 nM
p38α
  IC50: 14.8 nM

## CNCc1cc(-c2cn(C)nc2-c2ccc(F)cc2)ccn1 [Compound I]
DUX4; 15 h
  EC50: 3100 to 5500 nM
CK1α
  IC50: 1760 nM
CK1δ
  IC50: 57.7 nM
CK1ε
  IC50: 89 nM
p38α
  IC50: 3070 nM

## Fc1ccc(-c2nc(-c3c(F)cccc3F)[nH]c2-c2ccncc2)cc1 [Compound O]
DUX4; [1]
  EC50: 710 nM

## Nc1nccc(-c2c(-c3ccc(F)cc3)ncn2C2CCCCC2)n1 [PF-670462, reference compound]
DUX4; [1]
  EC50: 430 nM

## Nc1nccc(-c2c(-c3ccc(F)cc3)ncn2C2CCN(Cc3ccon3)CC2)n1 [PF-5006739, reference compound]
DUX4; [1]
  EC50: 310 nM

## COc1cc(OC)c2c(=O)[nH]c(-c3cc(C)c(OCCO)c(C)c3)nc2c1 [RVX-208, reference compound]
DUX4; irrespective of treatment time (15 h or 72 h), not shown
  effect on DUX4 expression: did not show any effect on DUX4 expression

## Fc1cccc(-n2cnc3c(NCc4nc5ccc(F)c(F)c5[nH]4)nc(N4CCOCC4)nc32)c1 [SR-3029, reference compound]
DUX4; 15 h
  EC50: 50 to 120 nM
CK1α
  IC50: 1000 nM
p38α
  IC50: 1000 nM
